A value given as a limit tells only on which side of the number the result lay.

In the assay the target is PIK3CG (human) (UniProt P48736). Kind of assay: Inhibition of PIK3CG Kinase Activity.
Chain of PIK3CG (human) (P48736 whole entry, looked up): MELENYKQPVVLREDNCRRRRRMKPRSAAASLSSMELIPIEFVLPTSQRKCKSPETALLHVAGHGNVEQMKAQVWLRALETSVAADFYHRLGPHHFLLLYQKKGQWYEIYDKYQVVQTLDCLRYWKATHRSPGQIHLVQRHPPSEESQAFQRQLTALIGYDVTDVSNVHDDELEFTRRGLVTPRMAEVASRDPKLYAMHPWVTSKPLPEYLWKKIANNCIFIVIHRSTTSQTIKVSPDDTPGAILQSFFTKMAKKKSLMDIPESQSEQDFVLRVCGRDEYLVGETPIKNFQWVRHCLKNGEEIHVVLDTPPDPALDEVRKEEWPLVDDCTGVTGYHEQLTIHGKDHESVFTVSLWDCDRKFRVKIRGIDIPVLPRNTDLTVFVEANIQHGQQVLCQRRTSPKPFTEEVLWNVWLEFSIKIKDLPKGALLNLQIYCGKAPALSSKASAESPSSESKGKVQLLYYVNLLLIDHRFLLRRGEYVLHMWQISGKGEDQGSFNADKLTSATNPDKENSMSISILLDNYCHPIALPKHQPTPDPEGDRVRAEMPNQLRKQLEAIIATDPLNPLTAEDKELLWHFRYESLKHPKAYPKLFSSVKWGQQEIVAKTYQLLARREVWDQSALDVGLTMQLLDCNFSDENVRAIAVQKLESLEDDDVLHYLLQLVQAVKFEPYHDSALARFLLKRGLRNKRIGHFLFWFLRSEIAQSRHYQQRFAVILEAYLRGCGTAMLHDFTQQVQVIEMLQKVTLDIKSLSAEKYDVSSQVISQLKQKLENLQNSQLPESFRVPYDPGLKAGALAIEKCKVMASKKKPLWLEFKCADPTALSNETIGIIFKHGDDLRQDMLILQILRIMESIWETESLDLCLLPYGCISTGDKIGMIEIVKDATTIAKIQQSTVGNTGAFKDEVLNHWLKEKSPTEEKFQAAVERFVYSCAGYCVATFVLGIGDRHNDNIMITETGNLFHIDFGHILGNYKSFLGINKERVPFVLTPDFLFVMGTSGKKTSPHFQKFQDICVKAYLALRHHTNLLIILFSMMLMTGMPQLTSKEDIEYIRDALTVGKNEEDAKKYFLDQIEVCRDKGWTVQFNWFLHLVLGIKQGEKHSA
In turn, `CC(=O)Nc1nc2c(s1)-c1c(c(C3CC3)nn1-c1ccc(C(=O)N(C)C3CCN(C4CCCC4)CC3)c(C)c1)CC2` had an IC50 of less than 600 nM.

Molecule `CC(=O)Nc1nc2c(s1)-c1c(c(C3CC3)nn1-c1ccc(CC(=O)N[C@H]3CC[C@@H](N4CCCC4)CC3)cc1Cl)CC2` yielded a half-maximal inhibitory concentration (IC50) of less than 600 nM. In the case of `CC(=O)Nc1nc2c(s1)-c1c(c(C3CC3)nn1-c1ccc(C(=O)NC3CCN(C4CCOCC4)CC3)cc1F)CC2` it was less than 600 nM; in that of `CC(=O)Nc1nc2c(s1)-c1c(c(C3CC3)nn1-c1ccc(C(=O)N(C)[C@H]3CC[C@@H](N4CCCCC4)CC3)cc1F)CC2`, less than 600 nM; in that of `CC(=O)Nc1nc2c(s1)-c1c(c(C3(C)CC3)nn1-c1ccccc1Cl)CC2`, less than 600 nM. In the case of `CC(=O)Nc1nc2c(s1)-c1c(c(C3CC3)nn1-c1ccc(C(=O)NC3CCN(CC4CCCCC4)CC3)cc1C)CC2` it was less than 600 nM. In the case of `CCCN1CC[C@@H](NC(=O)c2ccc(-n3nc(C4CC4)c4c3-c3sc(NC(C)=O)nc3CC4)cc2F)C1` it was less than 600 nM; in that of `CC(=O)Nc1nc2c(s1)-c1c(c(C3CC3)nn1-c1ccc(C(=O)N[C@H]3CC[C@@H](N(C)CC4CCCC4)CC3)c(C)c1)CC2`, less than 600 nM. As to `CC(=O)Nc1nc2c(s1)-c1c(c(C3CC3)nn1-c1ccc(C(=O)NC3CCN(C4CCCC4)CC3)c(C)c1)CC2`, the half-inhibitory concentration (IC50) is less than 600 nM. The same measure for `CC(=O)Nc1nc2c(s1)-c1c(c(C3CC3)nn1-c1ccc(C(=O)N[C@H]3CCN(C4CCCC4)C3)c(Cl)c1)CC2`: less than 600 nM; for `CC(=O)Nc1nc2c(s1)-c1c(c(C3CC3)nn1-c1ccc(C(=O)NCC3CCN(C4CCCC4)CC3)c(Cl)c1)CC2`: less than 600 nM.

Consider `CC(=O)Nc1nc2c(s1)-c1c(c(C3CC3)nn1-c1ccc(C(=O)NC[C@@H]3CCN(CC4CCCC4)C3)c(Cl)c1)CC2`, for which the IC50 was less than 600 nM.

`CC(=O)Nc1nc2c(s1)-c1c(c(C3CC3)nn1-c1ccc(C(=O)N(C)C[C@H]3CCN(C4CCCC4)C3)c(Cl)c1)CC2`: the IC50 was less than 600 nM. In the case of `CC(=O)Nc1nc2c(s1)-c1c(c(C3CC3)nn1-c1ccc(CC(=O)NC3CCN(C4CCCC4)CC3)cc1Cl)CC2` it was less than 600 nM. As for `CNC(=O)c1ccc(-n2nc(C3(C)CC3)c3c2-c2sc(NC(C)=O)nc2CC3)c(Cl)c1`, the half-maximal inhibitory concentration (IC50) is less than 600 nM. Take `CCCN1CCC(NC(=O)c2ccc(-n3nc(C4CCCC4)c4c3-c3sc(NC(C)=O)nc3CC4)c(Cl)c2)CC1`: the IC50 was less than 600 nM. The same measure for `CC(=O)Nc1nc2c(s1)-c1c(c(C3CC3)nn1-c1ccc(C(=O)N[C@H]3CC[C@@H](N4CCCCC4)CC3)cc1C)CC2`: less than 600 nM; for `CC(=O)Nc1nc2c(s1)-c1c(c(C3CC3)nn1-c1ccc(C(=O)N[C@H]3CCN(CC4CCCC4)C3)cc1F)CC2`: less than 600 nM.

(Values after the Kinase Knowledgebase extract (Sharma et al. 2016).)
